Activity calls are given as the source filed them. No cut-off for these calls is given here.
How the values were obtained:
[1] = Binding affinity to human His6-HALO-TEV DCAF15/DDB1/DDA1 complex assessed as displacement of fluorophore tagged indisulam analogue from complex measured after 1 hr by TR-FRET assay
[2] = Lipophilicity, logD of the compound in octanol/water at pH 7.4 by shake flask method; format: physicochemical
[3] = molecular target: T1, Bromodomain-containing protein 4/DDB1- and CUL4-associated factor 15 (Homo sapiens, UniProt O60885+Q66K64); assay: PROTAC activity at BRD4/DCAF15 E3 ligase (unknown origin) assessed as maximal degradation incubated for 16 hrs by immunoblot analysis relative to control; format: protein assay
[4] = molecular target: T1, Bromodomain-containing protein 4/DDB1- and CUL4-associated factor 15; assay: PROTAC activity at BRD4/DCAF15 E3 ligase (unknown origin) incubated for 16 hrs by immunoblot analysis; format: protein assay
[5] = molecular target: T1, Bromodomain-containing protein 4/DDB1- and CUL4-associated factor 15; assay: PROTAC activity at HiBiT tag-BRD4/DCAF15 E3 ligase (unknown origin) expressed in HEK293 cells assessed as maximal degradation incubated for 6 hrs by HiBit degradation assay relative to control; format: cell-based
[6] = molecular target: T1, Bromodomain-containing protein 4/DDB1- and CUL4-associated factor 15; assay: PROTAC activity at HiBiT tag-BRD4/DCAF15 E3 ligase (unknown origin) expressed in HEK293 cells incubated for 6 hrs by HiBit degradation assay; format: cell-based
[7] = Aqueous solubility of the compound in DMSO measured for 20 to 24 hrs; format: physicochemical; settings: time 20-24 hrs
[8] = molecular target: T1, Bromodomain-containing protein 4/DDB1- and CUL4-associated factor 15; assay: PROTAC activity at HiBiT tag-BRD4/DCAF15 E3 ligase (unknown origin) expressed in HEK293 cells in presence of MLN4924 incubated for 24 hrs by HiBit degradation assay; format: cell-based
[9] = molecular target: T1, Bromodomain-containing protein 4/DDB1- and CUL4-associated factor 15; assay: PROTAC activity at HiBiT tag-BRD4/DCAF15 E3 ligase (unknown origin) expressed in HEK293 cells in presence of (+)-JQ1 incubated for 24 hrs by HiBit degradation assay; format: cell-based
[10] = test system: HEK293; assay: Cytotoxicity against human HEK293 cells expressing HiBiT tag-BRD4 assessed as cell viability at 10 uM measured after 24 hrs; format: toxicity, cell-based; settings: hek293, 24 h
[11] = molecular target: DDB1- and CUL4-associated factor 15/RNA-binding protein 39 (Homo sapiens) (UniProt Q14498+Q66K64); assay: PROTAC activity at RBM39/DCAF15 E3 ligase (unknown origin) assessed as degradation at 0.1 to 10 uM by Western blotting analysis; format: cell-based; settings: HEK293, dose 0.1-10 µM
Sequence of DDB1- and CUL4-associated factor 15/RNA-binding protein 39 (Homo sapiens) (Q14498 whole entry, looked up): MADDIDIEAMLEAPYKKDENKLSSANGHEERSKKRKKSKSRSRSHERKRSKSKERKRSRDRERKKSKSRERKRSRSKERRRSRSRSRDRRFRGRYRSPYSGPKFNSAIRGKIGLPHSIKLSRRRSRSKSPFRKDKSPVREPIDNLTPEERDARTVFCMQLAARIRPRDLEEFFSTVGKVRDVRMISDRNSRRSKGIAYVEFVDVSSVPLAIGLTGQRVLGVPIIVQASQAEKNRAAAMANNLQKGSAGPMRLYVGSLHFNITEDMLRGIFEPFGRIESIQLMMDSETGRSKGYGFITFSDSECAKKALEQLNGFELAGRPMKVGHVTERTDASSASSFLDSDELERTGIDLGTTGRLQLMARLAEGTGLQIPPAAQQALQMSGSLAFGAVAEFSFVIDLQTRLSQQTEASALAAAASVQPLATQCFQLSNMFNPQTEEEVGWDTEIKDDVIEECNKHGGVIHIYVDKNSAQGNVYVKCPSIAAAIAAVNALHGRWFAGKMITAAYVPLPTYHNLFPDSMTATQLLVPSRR
Sequence of DDB1- and CUL4-associated factor 15/RNA-binding protein 39 (Homo sapiens) (Q66K64 whole entry, looked up): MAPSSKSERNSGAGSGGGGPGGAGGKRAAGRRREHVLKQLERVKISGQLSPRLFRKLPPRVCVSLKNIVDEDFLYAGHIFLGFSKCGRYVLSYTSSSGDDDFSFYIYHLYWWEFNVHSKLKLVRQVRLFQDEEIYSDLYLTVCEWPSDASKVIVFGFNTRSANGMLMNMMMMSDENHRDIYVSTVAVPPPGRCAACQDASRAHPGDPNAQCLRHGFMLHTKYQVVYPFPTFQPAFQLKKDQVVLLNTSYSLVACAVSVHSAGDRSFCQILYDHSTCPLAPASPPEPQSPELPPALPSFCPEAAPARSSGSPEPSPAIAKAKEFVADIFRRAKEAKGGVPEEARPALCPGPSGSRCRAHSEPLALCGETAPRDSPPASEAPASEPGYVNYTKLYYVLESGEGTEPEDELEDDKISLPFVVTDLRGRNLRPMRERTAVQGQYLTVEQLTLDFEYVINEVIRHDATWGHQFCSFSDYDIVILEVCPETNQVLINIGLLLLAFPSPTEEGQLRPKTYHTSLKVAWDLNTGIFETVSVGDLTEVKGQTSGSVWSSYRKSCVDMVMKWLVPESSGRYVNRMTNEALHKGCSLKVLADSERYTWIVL

T1 sequence (Q66K64 whole entry, looked up, other chains not shown): as the sequence (Q66K64 whole entry, looked up) above

Row | Structure (SMILES) | IC50 [1] | logD [2] | other results
1 | N#Cc1cccc(S(=O)(=O)Nc2cc(Cl)cc3c(Cl)c[nH]c23)c1 | 1460 nM | 3.8 | –
2 | CNC(=O)C1CN(C(=O)c2oc(S(=O)(=O)Nc3ccc(Cl)c4c(Cl)c[nH]c34)cc2C)C1 | 979 nM | 1.9 | –
3 | N#Cc1cccc(S(=O)(=O)Nc2ccc(Cl)c3c(Cl)c[nH]c23)c1 | 709 nM | 4 | –
4 | CN(C)C(=O)c1ccc(S(=O)(=O)Nc2ccc(Cl)c3c(Cl)c[nH]c23)o1 | 675 nM | 2.3 | –
5 | Cc1sc2c(c1C)C(c1ccc(Cl)cc1)=N[C@@H](CC(=O)NCCOCCOCCNC(=O)c1cccc(S(=O)(=O)Nc3ccc(C)c4c(C#N)c[nH]c34)c1)c1nnc(C)n1-2 | – | – | Emax [3]: 98%; DC50 [4]: 10800 nM
6 | Cc1ccc(NS(=O)(=O)c2cccc(C#N)c2)c2[nH]cc(C#N)c12 [E-7820] | 2320 nM | 2.6 | –
7 | N#Cc1cccc(S(=O)(=O)Nc2ccc(Cl)c3c(C#N)c[nH]c23)c1 | 1550 nM | 2.4 | –
8 | Cc1sc(S(=O)(=O)Nc2ccc(Cl)c3c(Cl)c[nH]c23)cc1C(=O)N(C)C | 615 nM | 3 | –
9 | CN(C)C(=O)c1nc(S(=O)(=O)Nc2ccc(Cl)c3c(Cl)c[nH]c23)cn1C | 842 nM | 2.2 | –
10 | Cc1coc(S(=O)(=O)Nc2ccc(Cl)c3c(Cl)c[nH]c23)c1 | 1180 nM | 3.7 | –
11 | N#Cc1cccc(S(=O)(=O)Nc2ccc(F)c3c(C#N)c[nH]c23)c1 | 7010 nM | 2 | –
12 | CNC(=O)[C@H]1CCN(C(=O)c2oc(S(=O)(=O)Nc3ccc(Cl)c4c(Cl)c[nH]c34)cc2C)C1 | 692 nM | 2 | –
13 | N#Cc1cccc(S(=O)(=O)Nc2ccc(C#N)c3c(Cl)c[nH]c23)c1 | 4390 nM | 1.7 | –
14 | COc1ccc(NS(=O)(=O)c2cccc(C#N)c2)c2[nH]cc(C#N)c12 | > 100000 nM | 2.2 | –

Further lines, with some results ahead:

Row | IC50 [1] | logD [2] | Structure (SMILES) | other results
15 | 506 nM | 1.5 | Cc1sc(S(=O)(=O)Nc2ccc(Cl)c3c(Cl)c[nH]c23)nc1C(=O)N(C)C | –
16 | 46 nM | 3.6 | Cc1cc(S(=O)(=O)Nc2ccc(Cl)c3c(Cl)c[nH]c23)oc1C(=O)N1CCCCC1 | –
17 | 224 nM | 3.1 | Cc1cc(S(=O)(=O)Nc2ccc(Cl)c3c(Cl)c[nH]c23)sc1C(=O)N(C)C | –
18 | 576 nM | 2.9 | CNC(=O)c1oc(S(=O)(=O)Nc2ccc(Cl)c3c(Cl)c[nH]c23)cc1C | –
19 | 221 nM | 2.7 | Cc1cc(S(=O)(=O)Nc2ccc(Cl)c3c(Cl)c[nH]c23)oc1C(=O)N(C)C | –
20 | 393 nM | 2.2 | Cc1cc(S(=O)(=O)Nc2ccc(Cl)c3c(Cl)c[nH]c23)oc1C(=O)N1CCN(C)CC1 | –
21 | 395 nM | 2.3 | CN(C)C(=O)c1oc(S(=O)(=O)Nc2ccc(Cl)c3c(Cl)c[nH]c23)cc1Cl | –
22 | 74 nM | > 4 | Cc1cc(S(=O)(=O)Nc2ccc(Cl)c3c(Cl)c[nH]c23)oc1C(=O)N1CCC(C(=O)N2CCN(CC3CCN(C(=O)C[C@@H]4N=C(c5ccc(Cl)cc5)c5c(sc(C)c5C)-n5c(C)nnc54)CC3)CC2)CC1 | Emax [5]: 69%; DC50 [6]: 453 nM; solubility [7]: < 0.16 µM; Activity [8]: inactive
23 | 53 nM | 2.1 | CNC(=O)C1CCN(C(=O)c2oc(S(=O)(=O)Nc3ccc(Cl)c4c(Cl)c[nH]c34)cc2C)CC1 | Activity [9]: Active; Activity [10]: Toxic; Activity [11]: inactive
24 | 279 nM | 2 | CNC(=O)[C@@H]1CCN(C(=O)c2oc(S(=O)(=O)Nc3ccc(Cl)c4c(Cl)c[nH]c34)cc2C)C1 | –
25 | 505 nM | 2.8 | COCCNC(=O)c1oc(S(=O)(=O)Nc2ccc(Cl)c3c(Cl)c[nH]c23)cc1C | –

From ChEMBL document CHEMBL5543118, “Optimization of Potent Ligands for the E3 Ligase DCAF15 and Evaluation of Their Use in Heterobifunctional Degraders” (J Med Chem, 2024)
